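Values below derive from 48-hour exposures of cells grown in 96-well plates, with endpoints linearly interpolated between the two concentrations bracketing the appropriate inhibition level. GI50 = concentration required for 50% inhibition of growth.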 Calls of active or inactive are those of the source. No stated cut-off is given here; in the data, active = GI50 up to about 1.1 µM and inactive = higher.
Assays:
Experiment in all cases: DTP human tumour cell line panel, 48 h
786-0 = test system: 786-0
ACHN = test system: ACHN
COLO 205 = test system: COLO 205
DU-145 = test system: DU-145
HCT-116 = test system: HCT-116
HL-60 = test system: HL-60
IGROV-1 = test system: IGROV-1
M14 = test system: M14
MDA-N = test system: MDA-N
OVCAR-5 = test system: OVCAR-5
OVCAR-8 = test system: OVCAR-8
RXF 393 = test system: RXF 393
SF-295 = test system: SF-295
SK-OV-3 = test system: SK-OV-3
TK-10 = test system: TK-10
U-251 = test system: U-251
UACC-62 = test system: UACC-62
UO-31 = test system: UO-31
HOP-92 = test system: HOP-92
SK-MEL-2 = test system: SK-MEL-2

Measured: GI50

COc1ccc(-c2c(C(C)=O)c(-c3ccccc3)n(C3OC(CO)C(O)C(O)C3O)c(=S)c2C#N)cc1 (stereo unspecified)
inactive: 786-0 > 100 µM | ACHN > 100 µM | COLO 205 > 100 µM | DU-145 > 100 µM | HCT-116 > 100 µM | HL-60 > 100 µM | IGROV-1 > 100 µM | M14 > 100 µM | MDA-N > 100 µM | OVCAR-5 > 100 µM | OVCAR-8 > 100 µM | RXF 393 > 100 µM | SF-295 > 100 µM | SK-OV-3 > 100 µM | TK-10 > 100 µM | U-251 > 100 µM | UACC-62 43.6 µM | UO-31 4 µM

OCC(O)CNc1ccnc2cc(Cl)ccc12 (stereo unspecified)
inactive: 786-0 > 100 µM | ACHN > 100 µM | COLO 205 > 100 µM | HCT-116 > 100 µM | HL-60 > 100 µM | HOP-92 > 100 µM | IGROV-1 > 100 µM | M14 > 100 µM | OVCAR-5 > 100 µM | OVCAR-8 > 100 µM | RXF 393 > 100 µM | SF-295 > 100 µM | SK-MEL-2 > 100 µM | SK-OV-3 > 100 µM | TK-10 > 100 µM | U-251 > 100 µM | UACC-62 > 100 µM | UO-31 > 100 µM

CCc1n[nH]c(=O)n1/N=C/c1ccc(/C=N/n2c(CC)n[nH]c2=O)cc1
inactive: 786-0 > 100 µM | ACHN > 100 µM | COLO 205 > 100 µM | DU-145 > 100 µM | HCT-116 > 100 µM | HL-60 > 100 µM | IGROV-1 > 100 µM | M14 > 100 µM | MDA-N > 100 µM | OVCAR-5 > 100 µM | OVCAR-8 > 100 µM | RXF 393 > 100 µM | SF-295 > 100 µM | SK-MEL-2 > 100 µM | TK-10 > 100 µM | U-251 > 100 µM | UACC-62 > 100 µM | UO-31 > 100 µM

CN/C=C(/c1ccc(OC)cc1)C(O)c1ccc(OC)c(OC)c1 (stereo unspecified)
inactive: 786-0 > 100 µM | ACHN > 100 µM | COLO 205 > 100 µM | HCT-116 > 100 µM | HL-60 > 100 µM | HOP-92 > 100 µM | IGROV-1 > 100 µM | M14 > 100 µM | OVCAR-5 > 100 µM | OVCAR-8 > 100 µM | RXF 393 > 100 µM | SF-295 > 100 µM | SK-MEL-2 > 100 µM | SK-OV-3 > 100 µM | TK-10 > 100 µM | U-251 > 100 µM | UACC-62 > 100 µM | UO-31 > 100 µM

CCOC(=O)C(/N=N\c1ccc(S(N)(=O)=O)cc1)C(C)=O (stereo unspecified)
inactive: 786-0 > 100 µM | ACHN > 100 µM | COLO 205 > 100 µM | HCT-116 > 100 µM | HL-60 > 100 µM | HOP-92 > 100 µM | IGROV-1 > 100 µM | M14 > 100 µM | OVCAR-5 > 100 µM | OVCAR-8 > 100 µM | RXF 393 > 100 µM | SF-295 > 100 µM | SK-MEL-2 > 100 µM | SK-OV-3 > 100 µM | TK-10 > 100 µM | U-251 > 100 µM | UACC-62 > 100 µM | UO-31 > 100 µM

OCCN(C1=NCCN1)/[N+](=C/c1ccccc1O)[CH-]c1ccccc1O
inactive: 786-0 > 100 µM | ACHN > 100 µM | COLO 205 > 100 µM | DU-145 > 100 µM | HCT-116 > 100 µM | HL-60 > 100 µM | IGROV-1 > 100 µM | M14 > 100 µM | MDA-N > 100 µM | OVCAR-5 > 100 µM | OVCAR-8 > 100 µM | SF-295 > 100 µM | SK-MEL-2 > 100 µM | SK-OV-3 > 100 µM | TK-10 > 100 µM | U-251 > 100 µM | UACC-62 > 100 µM | UO-31 37 µM

O=C(c1ccccc1)C(C(=O)c1ccccc1)C1(O)C(=O)c2ccccc2C1=O
active: RXF 393 0.253 µM
inactive: 786-0 26.9 µM | ACHN 31.9 µM | COLO 205 45.4 µM | HCT-116 > 10 µM | HL-60 16.7 µM | HOP-92 25.8 µM | IGROV-1 53.3 µM | M14 26.9 µM | OVCAR-5 60.3 µM | OVCAR-8 25.6 µM | SF-295 28.2 µM | SK-MEL-2 6.17 µM | SK-OV-3 48.8 µM | TK-10 3.01 µM | U-251 21 µM | UACC-62 32.6 µM | UO-31 36.1 µM
